ChEMBL document CHEMBL1154429, “Identifying mutator phenotypes among fluoroquinolone-resistant strains of Streptococcus pneumoniae using fluctuation analysis” (2007)

Key:
Type in all cases: functional
Streptococcus pneumoniae [1] = assay: Antibacterial activity against Streptococcus pneumoniae D39-3 with parC S79Y, gyrA S81F mutation by […]
Streptococcus pneumoniae [2] = assay: Antibacterial activity against Streptococcus pneumoniae 3386 with parC S79F, gyrA S81F mutation by […]
Streptococcus pneumoniae [3] = assay: Antibacterial activity against Streptococcus pneumoniae 455 with parC S79Y, gyrA S81F mutation by […]

Measured: MIC

C[C@H]1COc2c(N3CCN(C)CC3)c(F)cc3c(=O)c(C(=O)O)cn1c23.C[C@H]1COc2c(N3CCN(C)CC3)c(F)cc3c(=O)c(C(=O)O)cn1c23.O [LEVOFLOXACIN]
> 32 µg/mL: all assays above
